Our source for the viability values is publication PMC12040169 (PLOS Biology, 2025).

In general, viability refers to a read-out of living cells in per cent, often relative to untreated cells.

The nature of the data set: in vitro. To be noted: human, hela cells, % viability.

Molecules are shown by their SMILES.

Consider `CC12CCC(CC1C(=O)NC1CC1)[C@]1(C2)NC(=O)c2ccccc2N1` (some centres unmarked) [CBK284445], for which the viability at 28.5 h, 10 µM amounted to 92.2%.
The same measure for `OCCNc1nccnc1-c1ccoc1` [CBK036580]: 106%; for `CN1CCOc2ccccc2C(=O)NC/C=C/CC2(CCCN(Cc3cc[nH]n3)C2)C1=O` (centres unmarked) [CBK292175]: 103%.
The value for `CN(C)CCCn1c(NCc2ccc3c(c2)OCO3)nc2ccccc21` [CBK278273C] was 94.4%; that for `COc1ncccc1-c1csc(N2CCOC(C)C2)n1` (centres unmarked) [CBK304118] was 81.8%; that for `COc1cccc(C2CCCN2C(=O)CC2CCN(C(=O)CC3CCCCC3)CC2)c1` (centres unmarked) [CBK286264] was 98.4%.
The same measure for `CCOC(=O)c1c(NC(=O)CSc2nnc3ccccn23)sc2c1CCCCC2` [CBK265685]: 101%; for `CCOc1ccc(CC(=O)N2CCCc3c(cnn3C)C2)cc1` [CBK285325]: 101%.
`O=C(O)c1ccc(N2C(=O)/C(=C/c3c[nH]c4ccccc34)SC2=S)cc1` [CBK263085]: the viability at 28.5 h, 10 µM was 90.4%.
The value for `CC(C(=O)c1ccc(-c2ccccc2F)cc1)N1CCN(c2ccc(C#N)cc2)CC1` (centres unmarked) [CBK074706] was 92%.
The value for `COCC(=O)N1CCN2C(=O)N(Cc3ccccc3)C(=O)[C@H]2C1` [CBK289641] was 91.4%; that for `O=C(Nc1cc(Cl)ccc1C(=O)NC1CCC(O)CC1)c1cccs1` (centres unmarked) [CBK306186] was 89.2%; that for `Nc1ncnc2c1ccn2[C@H]1C[C@@H](O)[C@@H](CO)O1` [CBK201258] was 95.5%.
The same measure for `c1ccc(C(NCc2cncs2)C2CCCC2)cc1` (centres unmarked) [CBK304812]: 82.6%; for `CS(=O)(=O)c1ccc(-n2ncc(-c3ccc(C(F)(F)F)cc3)n2)cc1` [CBK112698]: 90%; for `CCN1CCOC(CNc2ncnc3c2CCC3)C1` (centres unmarked) [CBK304811]: 106%.
Take `Nc1cc2ccccc2c(-c2ccc(OC(F)(F)F)cc2)n1` [CBK085725]: the viability at 28.5 h, 10 µM turned out to be 99.4%.
Regarding `CCCc1c(O)n[nH]c1Cc1ccc(Cl)cc1` [CBK078564], the viability at 28.5 h, 10 µM worked out at 104%.
The same measure for `COc1cc(-c2nnc(NC(C)=O)o2)cc(OC)c1OC` [CBK287698]: 95.2%; for `O=C(O)c1ccc(-n2ccnc2)c(C#Cc2ccccc2)c1` [CBK284502]: 89.5%.
The same measure for `Cc1cc(NC(=O)N2CCN(c3ncccc3C#N)CC2)no1` [CBK305901]: 80.5%.
Regarding `O=C(O)COc1ccccc1/C=N/n1c(S)nnc1-c1ccncc1` [CBK265253], the viability at 28.5 h, 10 µM is 111%.
The same measure for `Cc1oc(-c2ccccc2)cc1C(=O)Nc1ccc(N2CCNCC2)nc1` [CBK034127T]: 80.3%; for `CSc1ncc(Cl)c(C(=O)Nc2ccc(S(=O)(=O)N3CCOCC3)cc2)n1` [CBK268775]: 106%.
With `O=C(CSc1nc(-c2ccccc2)cc(-c2ccccc2)n1)Nc1cccc([N+](=O)[O-])c1` [CBK263896], the viability at 28.5 h, 10 µM was 97.9%.
The value for `Cc1ccccc1C(=O)Nc1cccc(NC(=O)c2nc[nH]n2)c1` [CBK267108] was 86.6%; that for `CN(C)CC(=O)NC(Cc1cccs1)c1nccs1` (centres unmarked) [CBK285061] was 91.1%.
Consider `Cc1ccc(-n2nnnc2SCC(=O)O)cc1` [CBK287048], for which the viability at 28.5 h, 10 µM stood at 94.1%.
The same measure for `CN(C)CCCn1nc2n(c1=O)-c1ccccc1SC(c1ccccc1)C2` (centres unmarked) [CBK016063]: 105%; for `Clc1ccc(COc2nccnc2OC2CCN(Cc3ccncc3)CC2)cc1Cl` [CBK153792]: 107%.
The same measure for `O=C(O)Cn1cnc(-c2ccc(Br)cc2)c1` [CBK262441]: 111%; for `COCCCNC(=O)C1CCN(c2nc3c(-c4cccc(C)c4)csc3c(=O)[nH]2)CC1` [CBK215630]: 96.6%.
As for `O=c1[nH]c2ncc(-c3cccc(OC(F)(F)F)c3)nc2n1C1CCCCC1` [CBK064187], the viability at 28.5 h, 10 µM was 93.6%.
The value for `O=C(c1ccco1)N1CCC(c2nnc(-c3ccccc3)c(-c3ccccc3)n2)CC1` [CBK286282] was 86.4%.
The value for `Cc1nc2cc(C(=O)N3CCC(c4ccncc4)CC3)ccc2s1` [CBK283513] was 85.7%.
The same measure for `COc1ccc(-c2nnc3ccc(SC(C)C)nn23)cc1OC` [CBK287526]: 101%.
Regarding `Cc1nc(C(=O)N2CCC3(CCCCOc4ccccc4C(=O)NCCNC3=O)CC2)co1` [CBK292089], the viability at 28.5 h, 10 µM is 103%.
The same measure for `c1cnc(Oc2ccc(CN3CCCC(c4cn[nH]c4)C3)cc2)cn1` (centres unmarked) [CBK306416]: 86.6%; for `Clc1ccc(-n2c(COc3cccc4cccnc34)nnc2SCc2ccccc2)cc1` [CBK268502]: 103%; for `Cc1nccn1CCCNC(=O)c1ccc(N2CCCC2)cc1` [CBK281589]: 81.6%.
The value for `CNC(=O)c1ccc(-c2cc(C)cs2)nc1N(C)C` [CBK106150] was 86.8%; that for `O=C(Nc1nnc(C(F)(F)F)s1)c1cc(Cl)ccc1Cl` [CBK095734] was 86.3%; that for `CSc1[nH]nc(-c2ccc(C(C)(C)C)cc2)c1C#N` [CBK016999] was 108%.
The value for `COc1cc(-c2ccc3ccc(=O)[nH]c3n2)cc(OC)c1OC` [CBK073721] was 98.8%.
For the molecule `Cc1nc(N)nc(NCC2CCN(C3CC3)C2)c1Cl` (centres unmarked) [CBK306575], the viability at 28.5 h, 10 µM came to 85.9%.
Take `COc1ccc(-c2cc(C(=O)NCc3ccc(N)cc3)cnc2-c2cccc(C)c2)cc1` [CBK036728]: the viability at 28.5 h, 10 µM was 106%.
For the molecule `Cc1ccc([N+](=O)[O-])cc1S(=O)(=O)n1ccc2c(N3CCNCC3)nccc21` [CBK059068C], the viability at 28.5 h, 10 µM was determined as 96.5%.
Consider `COc1cc(-c2cncc(NCCCO)n2)cc(OC)c1OC` [CBK065271], for which the viability at 28.5 h, 10 µM was 95.5%.
Take `Cc1nn(C(C)C)c(C)c1CN1CCC(c2c(C(=O)NC(C)C)sc3ccccc23)C1` (centres unmarked) [CBK285890]: the viability at 28.5 h, 10 µM worked out at 95.5%.
As for `CCc1cccc2c(CC(=O)NCCn3ccc(C)n3)c(C)[nH]c12` [CBK282698], the viability at 28.5 h, 10 µM came out at 105%.
Consider `COc1ccnc(Sc2ccc(Cl)cc2)c1C#N` [CBK018571], for which the viability at 28.5 h, 10 µM was determined as 92.2%.
The same measure for `Clc1ccc(Cn2ncc3c(NCc4cccnc4)ncnc32)cc1` [CBK300478]: 94.9%.
The same measure for `O=C(Cc1cn2ccsc2n1)Nc1ccc(N2CCCCC2)cc1` [CBK306185]: 79%; for `COc1cc(F)cc(OC2CCNCC2)c1NC(=O)Cc1c[nH]c2ccccc12` [CBK050246T]: 91%.
The value for `O=C(NC1CCN(C(=O)CCn2ccc3ccncc32)CC1)C1CC1` [CBK284718] was 78.3%; that for `O=C(Cc1ccccc1)N1C[C@@H]2CCCCN(CC3CC3)[C@@H]2C1` [CBK285497] was 111%; that for `O=C(N[C@H]1CO[C@H]2[C@@H]1OC[C@@H]2Nc1nccc(-c2cccs2)n1)c1cccs1` [CBK289518] was 106%.
For the molecule `CN(C)C(=O)Cc1ccc(Cn2ccnc(N3CCC(Sc4ccccc4)CC3)c2=O)cc1` [CBK153652], the viability at 28.5 h, 10 µM was determined as 112%.
The value for `Cc1nn(-c2ccc(F)cc2)c2[nH]c(=O)c(CNC(C)C)cc12` [CBK283119] was 95.7%.
As for `Cc1noc(C)c1C(=O)N1CCn2cc(C(F)(F)F)nc2C1` [CBK282431], the viability at 28.5 h, 10 µM turned out to be 90.2%.
The same measure for `O=C(CN1Cc2ccccc2C1)N1CCCC1c1nc2ccccc2[nH]1` (centres unmarked) [CBK283710]: 87.9%; for `c1ccc2cc(-c3cn4ccnc4c(N4CCN(c5ccncc5)CC4)n3)ccc2c1` [CBK066369]: 89.2%; for `O=C(O)CN1C(=O)C2CCC(c3ccccc3)CC2C1=O` (centres unmarked) [CBK286952]: 95.7%.
The same measure for `COCCN1CCOC2(CCN(C(=O)c3ccc(C)cc3)CC2)C1c1ccccc1OC` (centres unmarked) [CBK112657C]: 100%; for `CC(=O)c1ccc2[nH]c(C(=O)O)c(CCN)c2c1` [CBK260944]: 91.6%; for `O=C(NCCCNc1ccc(C(F)(F)F)cc1[N+](=O)[O-])c1ccc(Cl)cc1` [CBK263721]: 99%.
The same measure for `COc1ccc2cc(Br)ccc2c1CC(=O)Nc1ccccc1[N+](=O)[O-]` [CBK268823]: 95.8%; for `Fc1cccc(Nc2nc(-c3ccncc3)nc3ccccc23)c1` [CBK072732]: 89.5%; for `CCCC(=O)Nc1ccc(-c2csc(N3CCCC3=O)n2)cc1` [CBK306088]: 82%.
For the molecule `CCCn1nccc1S(=O)(=O)NCCN1CCCCC1CO` (centres unmarked) [CBK307259], the viability at 28.5 h, 10 µM turned out to be 82%.
The value for `C#CCNC(=O)C1CCCN(c2nc3ccccc3n2C)C1` (centres unmarked) [CBK282336] was 89.6%; that for `CN(C)CC/C=C1/c2ccccc2COc2ccc(CC(=O)O)cc21` [CBK200992] was 92.4%.
The same measure for `COc1ccc(C(C)C)cc1-c1ccc(NS(C)(=O)=O)c2ccccc12` [CBK083747]: 97.8%; for `Cc1cc(C)c(C)c(S(=O)(=O)Nc2ccc(O)c(Sc3nc[nH]n3)c2)c1C` [CBK267012]: 66.6%.
The value for `Cc1ccc(C(=O)N2CCN(S(=O)(=O)N3CCCCCC3)CC2)cc1` [CBK269249] was 101%; that for `O=C1c2ccc(Oc3cccc(Oc4ccc5c(c4)C(=O)N(CCO)C5=O)c3)cc2C(=O)N1CCO` [CBK261398] was 110%; that for `O=C(NCc1ccccc1)c1cnc2n(c1=O)CCS2` [CBK287371] was 79.7%.
On to `N#CCCn1cc(C(=O)N2CCOCC2)c(-c2ccccc2)n1` [CBK306207], for which the viability at 28.5 h, 10 µM is 86%.
The value for `c1ccc(COc2nccnc2-c2cccs2)nc1` [CBK107055] was 107%; that for `Cc1cc(=O)n2ncn(CC(=O)NCCOc3ccccc3)c2c1` [CBK305823] was 99.3%.
